Test results published in ChEMBL document CHEMBL3616452 (Eur J Med Chem, 2015).
pIC50: −log10 of the molar value.

Biological target: Nucleoprotein (Influenza A virus (strain A/Wilson-Smith/1933 H1N1), UniProt P15682, S377G)
Test: Binding affinity to Influenza A virus (A/WSN/1933(H1N1)) nucleoprotein S377G mutant transfected in 293T cells assessed as inhibition of RNA dependent RNA polymerase activity
Format: cell-based, Influenza A virus (A/Weiss/1943(H1N1))

Compound	pIC50
Cn1c(=O)c2c(-c3ccccc3)n3c(c2n(C)c1=O)C(c1ccccc1F)OCC3(C)C (configuration not stated)	5.77
Cc1onc(-c2ccccc2Cl)c1C(=O)N1CCN(c2ccc([N+](=O)[O-])cc2)CC1	6.52
